Source: patent US7582604B2, “Template-fixed peptidomimetics with antibacterial activity” (Polyphor Ltd., priority 2002, dated 2009)
Values after ≈ are worked out from the molar mass of the structure shown. Where a SMILES comes first, the peptide text is derived from it. [ ]: non-standard residue; d: D form.

Experiments:
[1] = tested on: Staphylococcus aureus ATCC 29213; assay: MIC, NCCLS broth microdilution in Mueller-Hinton broth; type: cell-based; settings: 18-20 hours at 37° C.
Protocol: (§1) Lyophilized peptides were weighed on a Microbalance (Mettler MT5) and dissolved in sterile water containing 0.01% acetic acid.
(§2) The selective antimicrobial activities of the peptides were determined by the standard NCCLS broth microdilution method (see ref 1, below) examined in sterile 96-wells plates (Nunclon polystyrene microtiter plates) in a total volume of 100 μl. Innocula of the microorganisms were prepared with 0.5 Mcfarland standard and then diluted into Müeller-Hinton (MH^+) broth to give appr. 10^6 colony forming units (CFU)/rnl for bacteria Aliquots (50 μl) of the innocula were added to 50 μl of MH broth containing the peptide in serial twofold dilutions. For the screening of the peptides displaying selectivity, the following microorganisms were used: Escherichia coli (ATCC 25922), Pseudomonas aeruginosa (P. aeruginosa) (ATCC 27853), Staphylococcus aureus (ATCC 29213 and ATCC 25923), and clinical isolates of Pseudomonas aeruginosa (P. aeruginosa) V02 16085 and Acinetobacter (Acinetobacter V04 19905/1, Acinetobacter V12 21143/1 and Acinetobacter V12 21193/1). Antimicrobial activities of the peptides were expressed as the minimal inhibitory concentration (MIC) in μg/ml at which no visible growth was observed after 18-20 hours of incubation of the microtiter plates at 37° C.

[2] = tested on: human red blood cells (hRBC); type: cell-based; settings: red cells of human, 1 h
Protocol: The peptides were tested for their hemolytic activity against human red blood cells (hRBC). Fresh hRBC were washed three times with phosphate buffered saline (PBS) by centrifugation for 10 min at 2000×g. Peptides at a concentration of 100 μg/ml were incubated with 20% v/v hRBC for 1 hour at 37° C. The final erythrocyte concentration was appr. 0.9×10^9/ml. A value of 0% resp. 100% cell lysis was determined by incubation of the hRBC in the presence of PBS alone and resp. 0.1% Triton X-100 in H2O. The samples were centrifuged and the supernatant was 20 fold diluted in PBS buffer and the optical density (OD) of the sample at […] was measured. The 100% lysis value (OD540H2O) gave an OD of approximately 1.6-2.0. Percent hemolysis was calculated as follows: […]

[3] = tested on: Acinetobacter V12 21143/1 (clinical isolate); type: cell-based
Protocol: as §1, §2
(§3) Salt sensitivity of the peptides was tested by the microtiter serial dilution assay as described above. Only MH broth was replaced by MH broth containing 0.9% NaCl.

[4] = tested on: Acinetobacter V12 21193/1 (clinical isolate); type: cell-based
Protocol: as §1, §2, §3

[5] = tested on: Escherichia coli ATCC 25922; type: cell-based
Protocol: as §1, §2, §3

[6] = tested on: Escherichia coli ATCC 43827; type: cell-based
[7] = tested on: P. aeruginosa ATCC 278853; type: cell-based, Pseudomonas aeruginosa
Protocol: as §1, §2, §3

[8] = tested on: P. aeruginosa VO216085 (clinical isolate); type: cell-based, Pseudomonas aeruginosa
Protocol: as §1, §2, §3

Row | Structure (SMILES) | Minimal inhibitory concentration (MIC) Staphylococcus attreus ATCC 29213 [1] | Hemolysis at 100 μg/ml (percentage hemolysis) [2] | Minimal inhibitory concentration (MIC) Acinetobacter V12 21143/1 [3] | Minimal inhibitory concentration (MIC) Acinetobacter V12 21193/1 [4] | Minimal inhibitory concentration (MIC) Escherichia coli ATCC 25922 [5] | Minimal inhibitory concentration (MIC) Escherichia coli ATCC 43827 [6] | Minimal inhibitory concentration (MIC) P. aeruginosa ATCC 278853 [7] | Minimal inhibitory concentration (MIC) P. aeruginosa VO216085 [8]
1 | CC(C)C[C@@H]1NC(=O)[C@H](Cc2c[nH]c3ccccc23)NC(=O)[C@H](CCCNC(=N)N)NC(=O)[C@@H]2CCCN2C(=O)[C@H]2CCCN2C(=O)[C@H](CCCNC(=N)N)NC(=O)[C@H](Cc2ccc(O)cc2)NC(=O)[C@H](Cc2ccc(O)cc2)NC(=O)[C@H](C(C)C)NC(=O)[C@H](Cc2c[nH]c3ccccc23)NC(=O)[C@H](CCCNC(=N)N)NC(=O)[C@H](CCCNC(=N)N)NC(=O)[C@H](CCCCN)NC(=O)[C@H](CCCCN)NC1=O [compound 6] (cyclo(RWLKKRRWVYYR[dP]P)) | 100 µg/mL (≈ 50.3 µM) | 0.5% | – | – | – | – | – | –
2 | CC(C)C[C@@H]1NC(=O)[C@H](Cc2c[nH]c3ccccc23)NC(=O)[C@H](CCCNC(=N)N)NC(=O)[C@H](CCCNC(=N)N)NC(=O)[C@H](CCCCN)NC(=O)[C@H](CCCCN)NC(=O)[C@H](CC(C)C)NC(=O)[C@H](Cc2c[nH]c3ccccc23)NC(=O)[C@H](CCCNC(=N)N)NC(=O)[C@@H]2CCCN2C(=O)[C@H]2CCCN2C(=O)[C@H](CCCNC(=N)N)NC(=O)[C@H](Cc2ccc(O)cc2)NC(=O)[C@H](Cc2ccc(O)cc2)NC1=O [compound 1] (cyclo(RWLKKRRWLYYR[dP]P)) | 25 µg/mL (≈ 12.5 µM) | 0.5% | 6.2 µg/mL (≈ 3.1 µM) | 6.2 µg/mL (≈ 3.1 µM) | 100 µg/mL (≈ 50 µM) | 200 µg/mL (≈ 100 µM) | 50 µg/mL (≈ 25 µM) | 50 µg/mL (≈ 25 µM)
3 | CC(C)C[C@@H]1NC(=O)[C@H](Cc2c[nH]c3ccccc23)NC(=O)[C@H](CCCNC(=N)N)NC(=O)[C@@H]2CCCN2C(=O)[C@H]2CCCN2C(=O)[C@H](CCCNC(=N)N)NC(=O)[C@H](CCC(N)=O)NC(=O)[C@H](Cc2ccc(O)cc2)NC(=O)[C@H](CCCCN)NC(=O)[C@H](Cc2c[nH]c3ccccc23)NC(=O)[C@H](CCCNC(=N)N)NC(=O)[C@H](CCCNC(=N)N)NC(=O)[C@H](CCCCN)NC(=O)[C@H](CCCCN)NC1=O [compound 7] (cyclo(RWLKKRRWKYQR[dP]P)) | 200 µg/mL (≈ 101 µM) | 0.7% | – | – | – | – | – | –
4 | CC(C)C[C@@H]1NC(=O)[C@H](Cc2c[nH]c3ccccc23)NC(=O)[C@H](CCCNC(=N)N)NC(=O)[C@@H]2CCCN2C(=O)[C@H]2CCCN2C(=O)[C@H](CCCNC(=N)N)NC(=O)[C@H](CC(C)C)NC(=O)[C@H](Cc2ccc(O)cc2)NC(=O)[C@H](CCCCN)NC(=O)[C@H](Cc2c[nH]c3ccccc23)NC(=O)[C@H](CCCNC(=N)N)NC(=O)[C@H](CCCNC(=N)N)NC(=O)[C@H](CCCCN)NC(=O)[C@H](CCCCN)NC1=O [compound 8] (cyclo(RWLKKRRWKYLR[dP]P)) | 100 µg/mL (≈ 50.9 µM) | 0.4% | – | – | – | – | – | –
5 | CC(C)C[C@@H]1NC(=O)[C@H](Cc2c[nH]c3ccccc23)NC(=O)[C@H](CCCNC(=N)N)NC(=O)[C@@H]2CCCN2C(=O)[C@H]2CCCN2C(=O)[C@H](CCCNC(=N)N)NC(=O)[C@H](C(C)C)NC(=O)[C@H](Cc2ccc(O)cc2)NC(=O)[C@H](CCCCN)NC(=O)[C@H](Cc2c[nH]c3ccccc23)NC(=O)[C@H](CCCNC(=N)N)NC(=O)[C@H](CCCNC(=N)N)NC(=O)[C@H](CCCCN)NC(=O)[C@H](CCCCN)NC1=O [Ex. 2] (cyclo(RWLKKRRWKYVR[dP]P)) | 100 µg/mL (≈ 51.2 µM) | 0.5% | 12.5 µg/mL (≈ 6.41 µM) | 25 µg/mL (≈ 12.8 µM) | 100 µg/mL (≈ 51.2 µM) | 100 µg/mL (≈ 51.2 µM) | 9.4 µg/mL (≈ 4.82 µM) | 6.2 µg/mL (≈ 3.18 µM)
6 | CC(C)C[C@@H]1NC(=O)[C@H](Cc2c[nH]c3ccccc23)NC(=O)[C@H](CCCNC(=N)N)NC(=O)[C@@H]2CCCN2C(=O)[C@H]2CCCN2C(=O)[C@H](CCCNC(=N)N)NC(=O)[C@H](Cc2ccc(O)cc2)NC(=O)[C@H](Cc2ccc(O)cc2)NC(=O)[C@H](CCCCN)NC(=O)[C@H](Cc2c[nH]c3ccccc23)NC(=O)[C@H](CCCNC(=N)N)NC(=O)[C@H](CCCNC(=N)N)NC(=O)[C@H](CCCCN)NC(=O)[C@H](C(C)C)NC1=O [compound 5] (cyclo(RWLVKRRWKYYR[dP]P)) | 100 µg/mL (≈ 50.3 µM) | 0.5% | – | – | – | – | – | –
7 | CC(C)C[C@@H]1NC(=O)[C@H](Cc2c[nH]c3ccccc23)NC(=O)[C@H](CCCNC(=N)N)NC(=O)[C@@H]2CCCN2C(=O)[C@H]2CCCN2C(=O)[C@H](CCCNC(=N)N)NC(=O)[C@H](Cc2ccc(O)cc2)NC(=O)[C@H](CCC(N)=O)NC(=O)[C@H](CCCCN)NC(=O)[C@H](Cc2c[nH]c3ccccc23)NC(=O)[C@H](CCCNC(=N)N)NC(=O)[C@H](CCCNC(=N)N)NC(=O)[C@H](CCCCN)NC(=O)[C@H](CCCCN)NC1=O [compound 4] (cyclo(RWLKKRRWKQYR[dP]P)) | 100 µg/mL (≈ 50.5 µM) | 0.6% | 12.5 µg/mL (≈ 6.31 µM) | 25 µg/mL (≈ 12.6 µM) | 100 µg/mL (≈ 50.5 µM) | 200 µg/mL (≈ 101 µM) | 6.2 µg/mL (≈ 3.13 µM) | 3.1 µg/mL (≈ 1.57 µM)
8 | CC(C)C[C@@H]1NC(=O)[C@H](Cc2c[nH]c3ccccc23)NC(=O)[C@H](CCCNC(=N)N)NC(=O)[C@@H]2CCCN2C(=O)[C@H]2CCCN2C(=O)[C@H](CCCNC(=N)N)NC(=O)[C@H](Cc2ccc(O)cc2)NC(=O)[C@H]([C@@H](C)O)NC(=O)[C@H](CCCCN)NC(=O)[C@H](Cc2c[nH]c3ccccc23)NC(=O)[C@H](CCCNC(=N)N)NC(=O)[C@H](CCCNC(=N)N)NC(=O)[C@H](CCCCN)NC(=O)[C@H](CCCCN)NC1=O [compound 3] (cyclo(RWLKKRRWKTYR[dP]P)) | 100 µg/mL (≈ 51.2 µM) | 1.5% | 25 µg/mL (≈ 12.8 µM) | 100 µg/mL (≈ 51.2 µM) | 200 µg/mL (≈ 102 µM) | 200 µg/mL (≈ 102 µM) | 200 µg/mL (≈ 102 µM) | 9.4 µg/mL (≈ 4.81 µM)
